Measurements reported in ChEMBL document CHEMBL1201862, “PubChem BioAssay data set” (2004).
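Each compound was tested at five concentrations against cells in 96-well plates for 48 hours. At the GI50, growth is halved.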 Calls of active or inactive are those of the source. Rule as the data show it: active = GI50 up to about 1.1 µM and inactive = higher.

Assays:
Experiment in all cases: NCI tumour cell line growth inhibition, 48 h
786-0 = test system: 786-0
CAKI-1 = test system: CAKI-1
HL-60 = test system: HL-60
HOP-62 = test system: HOP-62
MCF7 = test system: MCF7
MDA-N = test system: MDA-N
Malme-3M = test system: Malme-3M
NCI-H226 = test system: NCI-H226
NCI-H460 = test system: NCI-H460
NCI-H522 = test system: NCI-H522
SF-268 = test system: SF-268
SF-295 = test system: SF-295
SK-MEL-28 = test system: SK-MEL-28
SK-MEL-5 = test system: SK-MEL-5
SN12C = test system: SN12C
T47D = test system: T47D
TK-10 = test system: TK-10
UACC-257 = test system: UACC-257
UACC-62 = test system: UACC-62
UO-31 = test system: UO-31

Measured: GI50

C[C@H]1CC[C@@H]2[C@@H](C)C[C@H]3[C@@H]4C(C)(C)OC(=O)[C@]4(C)C(=O)[C@@]23C1=O
inactive: 786-0 > 100 µM | CAKI-1 > 100 µM | HL-60 > 100 µM | HOP-62 > 100 µM | MCF7 > 100 µM | MDA-N > 100 µM | Malme-3M > 100 µM | NCI-H226 > 100 µM | NCI-H460 > 100 µM | NCI-H522 50.7 µM | SF-268 > 100 µM | SF-295 > 100 µM | SK-MEL-28 > 100 µM | SK-MEL-5 > 100 µM | SN12C > 100 µM | T47D 14 µM | TK-10 > 100 µM | UACC-257 > 100 µM | UACC-62 > 100 µM

c1ccc2c(c1)N=c1cc3c(cc1N2)=NC12CCCCC1CC1=C(CCCC1)N32 (centres undefined)
inactive: 786-0 2.89 µM | CAKI-1 6.58 µM | HL-60 3.04 µM | HOP-62 6.53 µM | MCF7 3.3 µM | MDA-N 2.21 µM | Malme-3M 2.17 µM | NCI-H226 2.31 µM | NCI-H460 6.17 µM | NCI-H522 4.19 µM | SF-268 4.55 µM | SF-295 9.04 µM | SK-MEL-28 3.3 µM | SK-MEL-5 1.81 µM | SN12C 2.36 µM | T47D 3.94 µM | TK-10 5.02 µM | UACC-257 2.03 µM | UACC-62 3.32 µM

NCCCCN(CCCN)Cc1ccc2ccccc2c1
inactive: 786-0 34.2 µM | CAKI-1 13.8 µM | HL-60 67.5 µM | MCF7 54.1 µM | MDA-N 21.3 µM | Malme-3M 51.8 µM | NCI-H226 21.5 µM | NCI-H460 15.7 µM | NCI-H522 13.5 µM | SF-268 12.6 µM | SF-295 44 µM | SK-MEL-28 > 100 µM | SK-MEL-5 92.7 µM | SN12C 12.9 µM | T47D > 100 µM | TK-10 > 100 µM | UACC-257 > 100 µM | UACC-62 95.7 µM | UO-31 13.7 µM

O=C1c2cccc([N+](=O)[O-])c2C(=O)N1Cc1ccccc1
inactive: 786-0 > 100 µM | CAKI-1 > 100 µM | HL-60 > 100 µM | HOP-62 > 100 µM | MCF7 > 100 µM | MDA-N > 100 µM | NCI-H226 > 100 µM | NCI-H460 > 100 µM | NCI-H522 > 100 µM | SF-268 > 100 µM | SF-295 > 100 µM | SK-MEL-28 > 100 µM | SK-MEL-5 > 100 µM | SN12C > 100 µM | T47D > 100 µM | TK-10 > 100 µM | UACC-257 > 100 µM | UACC-62 > 100 µM | UO-31 > 100 µM

COC(=O)c1ccc2cc(O)c(O)cc2c1
inactive: 786-0 41.8 µM | CAKI-1 78.2 µM | HL-60 > 100 µM | HOP-62 56 µM | MCF7 42.9 µM | MDA-N 45 µM | Malme-3M 35.8 µM | NCI-H226 38.9 µM | NCI-H522 16.1 µM | SF-268 16.6 µM | SF-295 38.3 µM | SK-MEL-28 46.9 µM | SK-MEL-5 22.1 µM | SN12C 55.2 µM | T47D 25.8 µM | TK-10 27.9 µM | UACC-257 29.8 µM | UACC-62 26.2 µM | UO-31 17.4 µM

Nc1ncc(C=O)c(NCC2(CO)CCC2)n1
inactive: 786-0 > 100 µM | CAKI-1 2.25 µM | HL-60 13 µM | HOP-62 31.7 µM | MCF7 23.9 µM | MDA-N > 100 µM | Malme-3M 77.4 µM | NCI-H226 27.7 µM | NCI-H460 50 µM | NCI-H522 35.6 µM | SF-268 87.9 µM | SF-295 36.8 µM | SK-MEL-5 19.9 µM | SN12C > 100 µM | T47D 14.8 µM | TK-10 15.4 µM | UACC-257 > 100 µM | UACC-62 12.3 µM | UO-31 27.5 µM

CO/N=C1/C(n2[nH]c(=O)n(-c3ccccc3)c2=O)C2C=CC1n1c(=O)n(-c3ccccc3)c(=O)n12 (centres undefined)
inactive: 786-0 > 100 µM | CAKI-1 > 100 µM | HL-60 > 100 µM | MCF7 > 100 µM | MDA-N > 100 µM | Malme-3M > 100 µM | NCI-H226 > 100 µM | NCI-H460 > 100 µM | NCI-H522 > 100 µM | SF-268 > 100 µM | SK-MEL-28 > 100 µM | SK-MEL-5 > 100 µM | SN12C > 100 µM | T47D > 100 µM | TK-10 > 100 µM | UACC-257 > 100 µM | UACC-62 > 100 µM | UO-31 > 100 µM

CCOC(=O)/C(C(=O)Nc1cccc(Cl)c1)=C(/N)N1CCCC1
inactive: 786-0 > 100 µM | CAKI-1 > 100 µM | HL-60 > 100 µM | HOP-62 > 100 µM | MCF7 > 100 µM | MDA-N > 100 µM | Malme-3M > 100 µM | NCI-H226 > 100 µM | NCI-H460 > 100 µM | NCI-H522 > 100 µM | SF-268 > 100 µM | SF-295 > 100 µM | SK-MEL-28 > 100 µM | SN12C > 100 µM | T47D > 100 µM | TK-10 > 100 µM | UACC-257 > 100 µM | UACC-62 > 100 µM

CC1(C)N=C(/C=N/O)C(C)(C)N1O
inactive: 786-0 > 100 µM | HL-60 > 100 µM | HOP-62 > 100 µM | MCF7 > 100 µM | MDA-N > 100 µM | Malme-3M > 100 µM | NCI-H226 > 100 µM | NCI-H460 > 100 µM | NCI-H522 > 100 µM | SF-268 > 100 µM | SF-295 > 100 µM | SK-MEL-28 > 100 µM | SK-MEL-5 > 100 µM | SN12C > 100 µM | T47D > 100 µM | TK-10 > 100 µM | UACC-62 > 100 µM | UO-31 81.3 µM

CSc1ccc(/C=C2\N=C(c3ccccc3)N(NC(=O)c3c(Cl)c(Cl)c(Cl)c(Cl)c3-c3nc4ccccc4[nH]3)C2=O)cc1
inactive: 786-0 36 µM | CAKI-1 21.7 µM | HL-60 23.7 µM | HOP-62 4.11 µM | MCF7 19.5 µM | MDA-N 6.87 µM | Malme-3M 30.1 µM | NCI-H226 14.2 µM | NCI-H460 4.43 µM | NCI-H522 28.4 µM | SF-268 36.9 µM | SF-295 4.49 µM | SK-MEL-28 30.8 µM | SK-MEL-5 21.7 µM | SN12C 31 µM | T47D 2.03 µM | UACC-257 28.4 µM | UACC-62 19.2 µM | UO-31 27.4 µM

CC1=NN(c2cccc(Cl)c2)C(=N/c2nc3ccccc3s2)/C1=C\c1cccs1
inactive: 786-0 87.3 µM | CAKI-1 52.7 µM | HL-60 14.3 µM | HOP-62 19.5 µM | MCF7 33.9 µM | MDA-N 73.8 µM | NCI-H226 36.4 µM | NCI-H460 35.6 µM | NCI-H522 27.9 µM | SF-268 33.2 µM | SF-295 25.3 µM | SK-MEL-28 36.2 µM | SK-MEL-5 28.1 µM | T47D 39.4 µM | TK-10 45.7 µM | UACC-257 37.4 µM | UO-31 60.8 µM
